The term GI50 denotes the concentration that inhibits growth by half.

Molecules are shown by their SMILES.

The test system of the assay is Ba/F3 cells expressing EGFR Del19/C797S (EGFR DC). Kind of assay: Proliferation inhibitory activity, Ba/F3 cells expressing EGFR Del19/C797S (CellTiter-Glo). The format is cell-based. The settings on record: Mus musculus, BaF3, 72 hours of compound treatment. Here is the method: The following experiments were performed to evaluate the inhibitory activity of the compounds according to the present disclosure on Ba/F3 proliferation expressing EGFR C797S, L861Q, G719A, S768I, L718Q, and/or G724S mutations.
For Ba/F3 cells, RPMI-1640 containing 10% FBS and 5 ng/ml IL-3 (R&D Systems) was used. Transduced Ba/F3 cells were cultured after adding 1 μg/ml puromycin (Invitrogen) to the same medium.
At 24 hours before treatment with the compounds, 3000 to 5000 cells were aliquoted into each well of a white clear bottom 96 well plate (Corning). The compounds were diluted in dimethyl sulfoxide (3 times dilution, 12 concentrations in total), and injected in an amount of 1 μl so that the final concentration was 0.2 nM to 5 uM. For measurement of living cells, after 72 hours of compound treatment, the cells were stored at room temperature for 10 min using CellTiter-Glo luminescentcell-viability reagent (Promega), and then luminescence intensity was measured using a reader (SynergyNeo, Biotek). Each test was repeated three times. Result values were calculated as the cell growth rate (%) compared to the control. The graphs were created using GraphPad Prism version 8.3.0 program and the GI50 values were calculated.
For `CCc1cc(Nc2cc(N3OCC[C@@H]3c3cccc(F)c3F)ncn2)c(OC)cc1N1CCC(N2CCN(C)CC2)CC1` [Example 92, (R)-6-(3-(2,3-difluorophenyl)isoxazolidin-2-yl)-N-(5-ethyl-2-methoxy-4-(4-(4-methylpiperazin-1-yl)piperidin-1-yl)phenyl)pyrimidin-4-amine], the GI50 is under 50 nM. The value for `COc1cc(N2CCC(N3CCN(C)CC3)CC2)ccc1Nc1cc(N2OCC3(CC3)[C@@H]2c2ccccc2)ncn1` [Example 233, (S)—N-(2-methoxy-4-(4-(4-methylpiperazin-1-yl)piperidin-1-yl)phenyl)-6-(7-phenyl-5-oxa-6-azaspiro[2.4]heptan-6-yl)pyrimidin-4-amine] was under 50 nM; that for `COc1cc(N2CCC(N3CCN(C)CC3)CC2)ccc1Nc1cc(N2OCC[C@@H]2c2cccc(C(F)F)c2)ncn1` [Example 184, (R)-6-(3-(3-(difluoromethyl)phenyl)isoxazolidin-2-yl)-N-(2-methoxy-4-(4-(4-methylpiperazin-1-yl)piperidin-1-yl)phenyl)pyrimidin-4-amine] was 50 to 500 nM; that for `COc1cc(N2CCC(N(C)C)CC2)ccc1Nc1cc(N2OCC[C@@H]2c2ccccc2)ncn1` [Example 119, (R)—N-(4-(4-(dimethylamino)piperidin-1-yl)-2-methoxyphenyl)-6-(3-phenylisoxazolidin-2-yl)pyrimidin-4-amine] was under 50 nM.

`COc1cc(N2CCC(N3CCN(C)[C@@H](C)C3)CC2)ccc1Nc1cc(N2OCC[C@@H]2c2cccc(F)c2F)ncn1` [Example 214, 6-((R)-3-(2,3-difluorophenyl)isoxazolidin-2-yl)-N-(4-(4-((S)-3,4-dimethylpiperazin-1-yl)piperidin-1-yl)-2-methoxyphenyl)pyrimidin-4-amine]: the 50% growth inhibitory concentration (GI50) was under 50 nM. The value for `Cc1cc(N2CCC(N3CCN(C)CC3)CC2)ccc1Nc1cc(N2OCC[C@@H]2c2ccccc2)ncn1` [Example 52, (R)—N-(2-methyl-4-(4-(4-methylpiperazin-1-yl)piperidin-1-yl)phenyl)-6-(3-phenylisoxazolidin-2-yl)pyrimidin-4-amine] was under 50 nM; that for `CCc1cc(Nc2cc(N3OCC[C@@H]3c3cc(F)cc(F)c3)ncn2)c(OC)cc1N1CCC(N2CCN(C)CC2)CC1` [Example 25, (R)-6-(3-(3,5-difluorophenyl)isoxazolidin-2-yl)-N-(5-ethyl-2-methoxy-4-(4-(4-methylpiperazin-1-yl)piperidin-1-yl)phenyl)pyrimidin-4-amine] was under 50 nM. For `COc1cc(N2CCC(N3CCCC3)CC2)ccc1Nc1cc(N2OCC[C@@H]2c2ccccc2)ncn1` [Example 62, (R)—N-(2-methoxy-4-(4-(pyrrolidin-1-yl)piperidin-1-yl)phenyl)-6-(3-phenylisoxazolidin-2-yl)pyrimidin-4-amine] the value was under 50 nM. With `COc1cc(N2CCC(N3CCN(C)CC3)CC2)ccc1Nc1cc(N2OCC[C@@H]2c2ccc(F)c(F)c2)ncn1` [Example 90, (R)-6-(3-(3,4-difluorophenyl)isoxazolidin-2-yl)-N-(2-methoxy-4-(4-(4-methylpiperazin-1-yl)piperidin-1-yl)phenyl)pyrimidin-4-amine], the GI50 was under 50 nM.

As for `COc1cc(N2CCC(N3CCC(N4CCN(C5CC5)CC4)CC3)CC2)ccc1Nc1cc(N2OCC[C@@H]2c2ccccc2)ncn1` [Example 63, (R)—N-(4-(4-(4-cyclopropylpiperazin-1-yl)-[1,4′-bipiperidin]-1′-yl)-2-methoxyphenyl)-6-(3-phenylisoxazolidin-2-yl)pyrimidin-4-amine], the GI50 was under 50 nM. The value for `COc1cc(N2CCC(N3CCN(CC4CC4)CC3)CC2)ccc1Nc1cc(N2OCC[C@@H]2c2cccc(F)c2F)ncn1` [Example 210, (R)—N-(4-(4-(4-(cyclopropylmethyl)piperazin-1-yl)piperidin-1-yl)-2-methoxyphenyl)-6-(3-(2,3-difluorophenyl)isoxazolidin-2-yl)pyrimidin-4-amine] was under 50 nM; that for `COc1cc(N2CCC(N3CCN(C)CC3)CC2)ccc1Nc1cc(N2OCC3(CC3)[C@H]2c2ccccc2)ncn1` [Example 234, (R)—N-(2-methoxy-4-(4-(4-methylpiperazin-1-yl)piperidin-1-yl)phenyl)-6-(7-phenyl-5-oxa-6-azaspiro[2.4]heptan-6-yl)pyrimidin-4-amine] was 50 to 500 nM; that for `COc1cc(N2CCC(N3CCN(C)CC3)CC2)ccc1Nc1cc(N2OCC[C@@H]2c2ccc(F)c(Cl)c2)ncn1` [Example 31, (R)-6-(3-(3-chloro-4-fluorophenyl)isoxazolidin-2-yl)-N-(2-methoxy-4-(4-(4-methylpiperazin-1-yl)piperidin-1-yl)phenyl)pyrimidin-4-amine] was under 50 nM. For `COc1cc(N2CC(N3CCN(C)CC3)C2)ccc1Nc1cc(N2OCC[C@@H]2c2cccc(F)c2F)ncn1` [Example 218, (R)-6-(3-(2,3-difluorophenyl)isoxazolidin-2-yl)-N-(2-methoxy-4-(3-(4-methylpiperazin-1-yl)azetidin-1-yl)phenyl)pyrimidin-4-amine] the value was under 50 nM; for `CN1CCN(C2CCN(c3c(F)cc(Nc4cc(N5OCC[C@@H]5c5ccccc5)ncn4)cc3F)CC2)CC1` [Example 123, (R)—N-(3,5-difluoro-4-(4-(4-methylpiperazin-1-yl)piperidin-1-yl)phenyl)-6-(3-phenylisoxazolidin-2-yl)pyrimidin-4-amine], under 50 nM. The value for `CCc1cc(Nc2cc(N3OCC[C@@H]3c3ccccc3)ncn2)c(OC)cc1N1CCC(N2CCN(C)CC2)CC1` [Example 109, (R)—N-(5-ethyl-2-methoxy-4-(4-(4-methylpiperazin-1-yl)piperidin-1-yl)phenyl)-6-(3-phenylisoxazolidin-2-yl)pyrimidin-4-amine] was under 50 nM; that for `COc1cc(N2CCC(N3CCN(C)CC3)CC2)ccc1Nc1cc(N2OCC[C@@H]2c2cccc(C(F)(F)F)c2)ncn1` [Example 27, (R)—N-(2-methoxy-4-(4-(4-methylpiperazin-1-yl)piperidin-1-yl)phenyl)-6-(3-(3-(trifluoromethyl)phenyl)isoxazolidin-2-yl)pyrimidin-4-amine] was 50 to 500 nM. For the molecule `CN1CCC(c2ccc(Nc3cc(N4OCC[C@@H]4c4cc(F)cc(F)c4)ncn3)c3c2CCO3)CC1` [Example 155, (R)-6-(3-(3,5-difluorophenyl)isoxazolidin-2-yl)-N-(4-(1-methylpiperidin-4-yl)-2,3-dihydrobenzofuran-7-yl)pyrimidin-4-amine], the GI50 was under 50 nM.

`CC(C)[C@H]1CCON1c1cc(Nc2ccc(N3CCN(C)CC3)cc2)ncn1` [Example 235, (R)-6-(3-isopropylisoxazolidin-2-yl)-N-(4-(4-methylpiperazin-1-yl)phenyl)pyrimidin-4-amine]: the GI50 is under 50 nM.

As to `Cn1cc(-c2cc(Nc3cc(N4OCC[C@@H]4c4ccccc4)ncn3)c(OCC(F)(F)F)cc2N2CCC(N3CCOCC3)CC2)cn1` [Example 165, (R)—N-(5-(1-methyl-1H-pyrazol-4-yl)-4-(4-morpholinopiperidin-1-yl)-2-(2,2,2-trifluoroethoxy)phenyl)-6-(3-phenylisoxazolidin-2-yl)pyrimidin-4-amine], the GI50 is under 50 nM.

On to `c1ccc([C@H]2CCON2c2cc(Nc3ccc4c(c3)CC[C@H](N3CCCC3)CC4)ncn2)cc1` [Example 83, 6-((R)-3-phenylisoxazolidin-2-yl)-N—((R)-7-(pyrrolidin-1-yl)-6,7,8,9-tetrahydro-5H-benzo[7]annulen-2-yl)pyrimidin-4-amine], for which the GI50 is under 50 nM. For `C=CCN1CCN(c2ccc(Nc3cc(N4OCC[C@@H]4c4ccccc4)ncn3)cc2)CC1` [Example 68, (R)—N-(4-(4-allylpiperazin-1-yl)phenyl)-6-(3-phenylisoxazolidin-2-yl)pyrimidin-4-amine] the value was under 50 nM. Regarding `CN1C2CC1CN(c1ccc(Nc3cc(N4OCC[C@@H]4c4ccccc4)ncn3)cc1)C2` [Example 136, N-(4-(6-methyl-3,6-diazabicyclo[3.1.1]heptan-3-yl)phenyl)-6-((R)-3-phenylisoxazolidin-2-yl)pyrimidin-4-amine], the GI50 was under 50 nM.

`COc1cc(N2CCC(N3CCN(C)CC3)CC2)ccc1Nc1cc(N2Oc3ccccc3C2c2ccccc2)ncn1` (stereo not drawn) [Example 230, N-(2-methoxy-4-(4-(4-methylpiperazin-1-yl)piperidin-1-yl)phenyl)-6-(3-phenylbenzo[d]isoxazol-2 (3H)-yl)pyrimidin-4-amine]: the GI50 is 50 to 500 nM. The value for `COc1cc(N2CCC(N3CCN(C)CC3)CC2)ccc1Nc1cc(N2OCC[C@@H]2c2cncc(Cl)c2)ncn1` [Example 182, (R)-6-(3-(5-chloropyridin-3-yl)isoxazolidin-2-yl)-N-(2-methoxy-4-(4-(4-methylpiperazin-1-yl)piperidin-1-yl)phenyl)pyrimidin-4-amine] was under 50 nM; that for `CN1OCC[C@H]1c1ccc(Nc2cc(N3OCC[C@@H]3c3cccc(F)c3F)ncn2)cc1` [Example 176, 6-((R)-3-(2,3-difluorophenyl)isoxazolidin-2-yl)-N-(4-((S)-2-methylisoxazolidin-3-yl)phenyl)pyrimidin-4-amine] was 50 to 500 nM. As for `COc1cc(N2CCC(N3CCN(C)CC3)CC2)ccc1Nc1cc(N2OCC[C@@H]2c2cc(F)cc(F)c2)ncn1` [Example 21, (R)-6-(3-(3,5-difluorophenyl)isoxazolidin-2-yl)-N-(2-methoxy-4-(4-(4-methylpiperazin-1-yl)piperidin-1-yl)phenyl)pyrimidin-4-amine], the GI50 was under 50 nM.

These data come from patent US12534457B2, “Heteroaryl derivative compounds, and uses thereof” (Voronoi Inc., priority 2021, dated 2026).
